The text below walks through data of patent US20060234323A1, “Luminescent ATP detection with extended linearity” (priority 2005, published 2006).

Experiment [1] deals with wild type luciferase from Photinus pyralis (QuantiLum recombinant luciferase) (Photinus pyralis, UniProt P08659). In kind it is biochemical.
The target in experiment [2] is thermostable luciferase (Luc146-1H2) (Photuris pensylvanica, UniProt Q27757). The class given is biochemical, Photuris pennsylvanica.
[3] abbreviates: NT (no inhibitor), metal salt replacing MgSO4, MgSO4 reactions employed NaATP, read-out: ATP Km.
Where [4] appears, read: with AMP + PPi, metal salt replacing MgSO4, MgSO4 reactions employed NaATP, read-out: ATP Km.
The mark [5] stands for this setting: with AMP, metal salt replacing MgSO4, MgSO4 reactions employed NaATP, read-out: ATP Km.
The mark [6] stands for this setting: with PPi, metal salt replacing MgSO4, MgSO4 reactions employed NaATP, read-out: ATP Km.
Setting [7] is: No PPi, 1 mM AMP, 2 mM 5′AMPS, 2 mM ADP S, 5 mM dATP, ATP 0 to 1.67 mM.
Where [8] appears, read: with 50 μM PPi, 1 mM AMP, 2 mM 5′AMPS, 2 mM ADP S, 5 mM dATP, ATP 0 to 1.67 mM.

Like-named read-outs stand apart in the source and are kept apart here.

Chain of wild type luciferase from Photinus pyralis (QuantiLum recombinant luciferase) (P08659 whole entry): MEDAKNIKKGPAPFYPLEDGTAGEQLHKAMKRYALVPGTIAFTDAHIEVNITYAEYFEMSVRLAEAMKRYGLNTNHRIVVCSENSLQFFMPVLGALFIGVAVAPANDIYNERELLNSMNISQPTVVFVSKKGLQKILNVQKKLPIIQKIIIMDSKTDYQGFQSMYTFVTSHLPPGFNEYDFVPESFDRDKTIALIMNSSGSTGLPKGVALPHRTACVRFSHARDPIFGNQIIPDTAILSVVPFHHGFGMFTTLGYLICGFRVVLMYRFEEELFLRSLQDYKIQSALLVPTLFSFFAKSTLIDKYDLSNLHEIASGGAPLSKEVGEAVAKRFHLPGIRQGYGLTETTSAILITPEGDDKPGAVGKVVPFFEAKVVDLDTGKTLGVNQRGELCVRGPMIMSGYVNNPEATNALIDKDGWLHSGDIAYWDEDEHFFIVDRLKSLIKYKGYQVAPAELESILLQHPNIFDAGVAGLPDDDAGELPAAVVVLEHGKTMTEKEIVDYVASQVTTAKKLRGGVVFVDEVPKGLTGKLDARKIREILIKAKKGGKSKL
Chain of thermostable luciferase (Luc146-1H2) (Q27757 whole entry): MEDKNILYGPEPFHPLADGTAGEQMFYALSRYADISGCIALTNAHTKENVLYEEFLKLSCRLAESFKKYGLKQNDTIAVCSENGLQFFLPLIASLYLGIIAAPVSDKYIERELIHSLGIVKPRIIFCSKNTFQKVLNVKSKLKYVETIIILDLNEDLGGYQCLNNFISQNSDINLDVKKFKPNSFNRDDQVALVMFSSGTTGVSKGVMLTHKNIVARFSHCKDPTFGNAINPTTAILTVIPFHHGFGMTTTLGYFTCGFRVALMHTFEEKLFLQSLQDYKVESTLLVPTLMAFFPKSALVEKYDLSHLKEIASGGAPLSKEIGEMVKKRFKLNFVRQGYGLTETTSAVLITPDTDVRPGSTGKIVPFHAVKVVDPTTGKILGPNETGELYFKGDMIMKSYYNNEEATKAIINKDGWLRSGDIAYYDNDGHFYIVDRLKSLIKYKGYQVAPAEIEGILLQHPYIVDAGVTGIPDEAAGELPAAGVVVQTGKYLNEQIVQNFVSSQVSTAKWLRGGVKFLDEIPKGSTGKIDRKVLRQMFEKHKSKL

As for `[Cl-].[Cl-].[Sr+2]` [SrCl2], the Michaelis constant (Km) (usually the concentration of substrate that gives half-maximal velocity) in experiment [1] (setting [3]) amounted to 373 µM; in experiment [1] (setting [4]), 2650 µM; in experiment [1] (setting [5]) it was 110 µM; in experiment [1] (setting [6]), 3290 µM.

Turning to `O=S(=O)([O-])[O-].[Mg+2]` [MgSO4], the Km in experiment [1] (setting [3]) was determined as 39 µM; in experiment [1] (setting [4]), 93 µM; in experiment [1] (setting [5]) it was 15 µM; in experiment [1] (setting [6]) it was 128 µM.

Regarding `[Cl][Mn][Cl]` [MnCl2], the Km came out at 120 µM in experiment [1] (setting [3]), 111 µM in experiment [1] (setting [4]), 44 µM in experiment [1] (setting [5]) and 170 µM in experiment [1] (setting [6]).

Take `Nc1ncnc2c1ncn2[C@@H]1O[C@H](COP(O)(O)=S)[C@@H](O)[C@H]1O` [5′AMPS, adenosine 5′-O-thiomonophosphate]: in experiment [2], the “increase of the luciferase Km for ATP” value is reported as ~10 fold and the “type of inhibition of luciferase with respect to ATP” value (shortened to “type of inhibition of luciferase”) is “competitive inhibitors”. Further, the Michaelis-Menten constant (Km) in experiment [2] (setting [7]) was 91 µM. In experiment [2] (setting [8]), the Michaelis-Menten constant (Km) was 1070 µM.

With `Nc1ncnc2c1ncn2[C@@H]1O[C@H](COP(=O)(O)OP(O)(O)=S)[C@@H](O)[C@H]1O` [ADP S, adenosine 5′-[β-thio] diphosphate], in experiment [2], the “increase of the luciferase Km for ATP” value is on record as ~10 fold. Further, in experiment [2], the “type of inhibition of luciferase” value is on record as “competitive inhibitors”. Also, the Michaelis constant (Km) in experiment [2] (setting [7]) was found to be 93 µM; in experiment [2] (setting [8]), 581 µM.

For the compound `O=P(O)(O)OP(=O)(O)O` [PPi], in experiment [2], the “increase of the luciferase Km for ATP” value was ≤ 2 fold. Further, the “type of inhibition of luciferase” value is recorded as “noncompetitive” in experiment [2] and “competitive” in experiment [1] (native beetle luciferase, in the presence of certain divalent metals). In addition, the Michaelis constant (Km) in experiment [2] (50 μM PPi alone (NT row, no adenosine derivative), ATP 0 to 1.67 mM, read-out: Km) amounted to 4 µM; in experiment [2] (ATP range 0 to 0.09 mM, AMP = 1 mM, PPi = 50 μM, hyperbolic curve fit, read-out: Km for ATP), 6 µM; in experiment [2] (ATP range 0 to 0.3 mM, AMP = 1 mM, PPi = 50 μM, hyperbolic curve fit, read-out: Km for ATP) it was 6 µM; in experiment [2] (ATP range 0 to 0.8 mM, AMP = 1 mM, PPi = 50 μM, hyperbolic curve fit, read-out: Km for ATP) it was 6 µM; in experiment [2] (ATP range 0 to 2.5 mM, AMP = 1 mM, PPi = 50 μM, hyperbolic curve fit, read-out: Km for ATP) it was 5 µM; in experiment [1] (0 mM AMP, 50 μM PPi, ATP 0 to 2.5 mM, MgATP, read-out: Km) it was 121 µM. Also, the Km stood at 130 µM in experiment [1] (0 mM AMP, 100 μM PPi, ATP 0 to 2.5 mM, MgATP, read-out: Km) and 146 µM in experiment [1] (0 mM AMP, 200 μM PPi, ATP 0 to 2.5 mM, MgATP, read-out: Km). Also, the “increase in Km” value in experiment [1] (200 μM PPi alone, compared to reactions with no PPi or AMP) was determined as 28%.

With `Nc1ncnc2c1ncn2[C@@H]1O[C@H](COP(=O)(O)O)[C@@H](O)[C@H]1O` [AMP, adenosine monophosphate], in experiment [2], the “increase of the luciferase Km for ATP” value was ~10 fold. Besides, in experiment [2], the “type of inhibition of luciferase” value is on record as “competitive inhibitors”. Also, the Michaelis-Menten constant (Km) was 109 µM in experiment [2] (setting [7]); 109 µM in experiment [2] (read-out: ATP Km, 1 mM AMP, ATP range 0-1.67 mM); 232 µM in experiment [2] (read-out: Km for ATP, ATP range 0 to 0.09 mM, AMP = 1 mM, PPi = 50 μM, hyperbolic curve fit); 243 µM in experiment [2] (read-out: Km for ATP, ATP range 0 to 0.3 mM, AMP = 1 mM, PPi = 50 μM, hyperbolic curve fit); 203 µM in experiment [2] (read-out: Km for ATP, ATP range 0 to 0.8 mM, AMP = 1 mM, PPi = 50 μM, hyperbolic curve fit); 115 µM in experiment [2] (read-out: Km for ATP, ATP range 0 to 2.5 mM, AMP = 1 mM, PPi = 50 μM, hyperbolic curve fit). Moreover, the Km in experiment [2] (setting [8]) was found to be 1700 µM. Further, the “decrease in Km” value in experiment [1] (3 mM AMP alone, compared to reactions with no PPi or AMP) worked out at 65%.

As for `[Cl-].[Cl-].[Mg+2]` [MgCl2], the Michaelis-Menten constant (Km) in experiment [1] (setting [3]) was determined as 115 µM; in experiment [1] (setting [4]), 213 µM; in experiment [1] (setting [5]), 56 µM; in experiment [1] (setting [6]), 276 µM.

`[Ca+2].[Cl-].[Cl-]` [CaCl2]: the Km in experiment [1] (setting [3]) is 1910 µM; in experiment [1] (setting [4]) it was 1040 µM; in experiment [1] (setting [5]), 980 µM; in experiment [1] (setting [6]), 1450 µM.

As to `[Cl][Ni][Cl]` [NiCl2], in experiment [2] (non-Mg metal employed with PPi), the “increase of the Km for ATP” value is given as “about 10 fold”. Besides, the Km in experiment [1] (setting [3]) came out at 906 µM; in experiment [1] (setting [4]), 1540 µM; in experiment [1] (setting [5]), 1100 µM; in experiment [1] (setting [6]) it was 2420 µM.

In the case of `[Cl-].[Cl-].[Zn+2]` [ZnCl2], the Km in experiment [1] (setting [3]) was 63 µM; in experiment [1] (setting [4]) it was 2390 µM; in experiment [1] (setting [5]), 585 µM; in experiment [1] (setting [6]), 109 µM.

For the compound `Nc1ncnc2c1ncn2[C@H]1C[C@H](O)[C@@H](COP(=O)(O)OP(=O)(O)OP(=O)(O)O)O1` [dATP, deoxyadenosine triphosphate], in experiment [2], the “increase of the luciferase Km for ATP” value is reported as ~10 fold and the “type of inhibition of luciferase” value was “competitive inhibitors”. For the same compound, the Michaelis-Menten constant (Km) in experiment [2] (setting [7]) amounted to 127 µM. In experiment [2] (setting [8]), the Michaelis-Menten constant (Km) came to 232 µM.
